{
  "source": "patent US20170283458A1",
  "about": "“COLLAGEN-BINDING SYNTHETIC PEPTIDOGLYCANS FOR WOUND HEALING” (Symic Biomedical, Inc., priority 2009, published 2017)",
  "key": {"Human dermal fibroblasts": {"test_system": "Human dermal fibroblasts", "assay": "TGF-β1 production by human dermal fibroblasts (ELISA)", "assay_type": "cell-based", "conditions": "1.4 μM treatment, 48 hours", "description": "Human dermal fibroblasts (Cascade Biologics) were seeded onto 96-well tissue culture polystyrene plates at a seeding density of 1.83×10^3 cells/well. Cells adhered overnight and cell medium was aspirated. 100 μL/well of cell medium containing a final concentration of 1.4 μM treatment delivered from a concentrated solution of treatment in 1×PBS was added to the cells. After 48 hours, cell medium was removed and frozen at −80 C until further testing. TGF-β1 was measured by ELISA using a kit and protocol from R&D Systems."}, "[1]": {"test_system": "Human coronary artery smooth muscle cells (HCA SMC)", "assay": "Gel compaction by smooth muscle cells in collagen gels", "assay_type": "cell-based", "conditions": "Days 3 and 5", "description": "Human coronary artery smooth muscle cells (HCA SMC) (Cascade Biologics) were cultured in growth medium (Medium 231 supplemented with smooth muscle growth factor). Cells from passage 3 were used for all experiments. Differentiation medium (Medium 231 supplemented with 1% FBS and 1× pen/strep) was used for all experiments unless otherwise noted.\nCollagen gels were prepared with each additive as described with the exception that the 1×PBS example addition was omitted to accommodate the addition of cells in media. After incubating on ice for 30 min, HCA SMCs in differentiation medium were added to the gel solutions to a final concentration of 1×10^6 cells/mL. Gels were formed in quadruplicate in 48-well non-tissue culture treated plates (Costar) for 6 hrs before adding 500 μL/well differentiation medium. Gels were freed from the well edges after 24 hrs. Medium was changed every 2-3 days and images for compaction were taken at the same time points using a Gel Doc System (Bio-Rad). The cross-sectional area of circular gels correlating to degree of compaction was determined using ImageJ software (NIH). Gels containing no cells were used as a negative control and cells in collagen gels absent additive were used as a positive control. […] By day 10 all gels had compacted to approximately 10% of the original gel area, and differences between additives were small."}, "collagen gels": {"target": "T1, collagen gels (Bos taurus, UniProt P02453+P02465)", "T1 construct": "purchased Inamed, Freemont, Calif; Nutragen", "T1 sequence (P02453 162-1217 limits assumed)": "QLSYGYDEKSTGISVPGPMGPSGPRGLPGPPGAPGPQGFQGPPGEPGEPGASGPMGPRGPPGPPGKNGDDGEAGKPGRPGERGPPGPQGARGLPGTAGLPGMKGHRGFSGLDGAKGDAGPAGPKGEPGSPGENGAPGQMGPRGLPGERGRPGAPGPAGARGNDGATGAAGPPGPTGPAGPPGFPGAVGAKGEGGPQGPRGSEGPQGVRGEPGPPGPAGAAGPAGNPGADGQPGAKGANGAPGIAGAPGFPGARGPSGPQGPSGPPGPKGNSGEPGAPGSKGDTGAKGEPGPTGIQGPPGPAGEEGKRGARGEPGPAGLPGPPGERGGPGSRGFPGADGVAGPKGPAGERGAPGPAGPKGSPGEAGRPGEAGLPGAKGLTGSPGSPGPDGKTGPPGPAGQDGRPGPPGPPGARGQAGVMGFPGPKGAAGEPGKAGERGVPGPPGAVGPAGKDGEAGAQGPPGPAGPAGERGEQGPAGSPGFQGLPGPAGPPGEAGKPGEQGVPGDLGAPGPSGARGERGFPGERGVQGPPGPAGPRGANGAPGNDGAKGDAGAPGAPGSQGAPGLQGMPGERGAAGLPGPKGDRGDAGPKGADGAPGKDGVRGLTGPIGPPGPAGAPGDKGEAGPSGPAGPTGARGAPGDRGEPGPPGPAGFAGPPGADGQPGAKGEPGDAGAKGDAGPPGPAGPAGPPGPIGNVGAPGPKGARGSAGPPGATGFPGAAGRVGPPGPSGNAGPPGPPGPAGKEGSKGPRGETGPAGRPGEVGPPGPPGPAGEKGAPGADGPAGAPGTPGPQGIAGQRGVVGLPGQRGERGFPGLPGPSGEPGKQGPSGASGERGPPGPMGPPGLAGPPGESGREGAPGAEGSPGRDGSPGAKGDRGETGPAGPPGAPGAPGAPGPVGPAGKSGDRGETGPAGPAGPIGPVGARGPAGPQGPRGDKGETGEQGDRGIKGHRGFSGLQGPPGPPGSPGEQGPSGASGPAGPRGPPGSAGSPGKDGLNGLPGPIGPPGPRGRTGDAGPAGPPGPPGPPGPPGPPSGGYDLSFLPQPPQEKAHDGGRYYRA", "T1 sequence (P02465 80-1117 limits assumed)": "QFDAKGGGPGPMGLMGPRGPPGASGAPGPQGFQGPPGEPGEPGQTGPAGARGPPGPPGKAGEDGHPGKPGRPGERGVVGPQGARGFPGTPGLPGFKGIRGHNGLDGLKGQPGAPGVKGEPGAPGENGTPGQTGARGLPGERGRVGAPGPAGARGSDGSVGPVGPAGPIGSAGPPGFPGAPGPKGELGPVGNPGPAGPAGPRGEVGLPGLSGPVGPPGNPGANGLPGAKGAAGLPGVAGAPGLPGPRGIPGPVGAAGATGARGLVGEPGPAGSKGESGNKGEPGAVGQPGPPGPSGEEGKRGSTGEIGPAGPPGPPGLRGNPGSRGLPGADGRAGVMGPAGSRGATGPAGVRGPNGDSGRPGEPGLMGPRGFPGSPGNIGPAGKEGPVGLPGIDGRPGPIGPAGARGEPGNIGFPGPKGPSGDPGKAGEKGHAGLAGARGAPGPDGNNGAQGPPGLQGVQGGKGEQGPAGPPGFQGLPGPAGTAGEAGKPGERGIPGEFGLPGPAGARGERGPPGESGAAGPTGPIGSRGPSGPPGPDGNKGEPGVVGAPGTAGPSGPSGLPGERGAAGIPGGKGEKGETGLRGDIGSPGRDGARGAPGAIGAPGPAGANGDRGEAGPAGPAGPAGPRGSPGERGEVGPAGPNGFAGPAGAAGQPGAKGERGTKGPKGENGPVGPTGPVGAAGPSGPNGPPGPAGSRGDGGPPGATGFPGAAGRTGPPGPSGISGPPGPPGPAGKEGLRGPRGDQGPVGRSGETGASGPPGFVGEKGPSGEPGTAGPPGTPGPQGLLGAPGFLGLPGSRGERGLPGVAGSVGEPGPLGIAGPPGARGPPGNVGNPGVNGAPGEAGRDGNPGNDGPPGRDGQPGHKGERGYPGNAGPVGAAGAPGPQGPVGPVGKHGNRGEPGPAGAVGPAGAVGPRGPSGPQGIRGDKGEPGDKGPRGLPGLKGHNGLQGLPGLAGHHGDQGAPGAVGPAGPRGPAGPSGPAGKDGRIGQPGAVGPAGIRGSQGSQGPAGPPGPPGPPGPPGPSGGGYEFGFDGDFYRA", "assay": "Cryo-SEM measurement of fibril density", "assay_type": "biochemical", "conditions": "10:1 molar ratio, cryo-SEM 10,000×", "description": "Collagen gels were formed in the presence of each additive at a 10:1 molar ratio, as described in EXAMPLE 16, directly on the SEM stage, processed, and imaged as described. Images at 10,000× were analyzed for fibril density calculations. Images were converted to 8-bit black and white, and threshold values for each image were determined using ImageJ software (NIH). The threshold was defined as the value where all visible fibrils are white, and all void space is black. The ratio of white to black area was calculated using MatLab software. All measurements were taken in triplicate and thresholds were determined by an observer blinded to the treatment."}, "Long-Evans rats [2]": {"test_system": "Long-Evans rats", "assay": "Rat incisional model, trichrome histological scoring of scar tissue (Beausang)", "assay_type": "in vivo", "conditions": "21-days post-injury; 0.125 mg and 0.625 mg; vs untreated wounds", "description": "Using sterile techniques, longitudinal wounds were incised on shaved dorsal skin of the rats. A 4 cm incision was cut through the panniculus down to the skeletal musculature, and a 250 μL single dose of either 10 mg/mL hyaluronic acid (HA) or HA+DS-SILY was applied to the open wound by a syringe. DS-SILY was tested at 0.5, 1, and 2.5 mg/mL mixed with HA. The incision was then sutured closed and animals were returned to individual cages and monitored for complications. Negative control rats received no treatment and were treated identically. A pilot study was performed (n=3) at time points 3, 7, 10, 14, and 21 days, followed by a higher powered study (n=9) for 21 and 28 day time points. […]\nH&E stained samples were examined for inflammation by a board certified pathologies blinded to the treatments following a scale adapted from Simhon et al. Trichrome stained samples were evaluated for scar tissue formation by an observer blinded to the treatments using a method established by Beausang et al. in which collagen orientation, density, and maturation are observed and compared to collagen of healthy tissue. A total of 12 tissue samples were analyzed for each study at each time point. Statistics were analyzed by ANOVA using Design Expert software (StatEase, Minneapolis, Minn.). […]"}, "Long-Evans rats [3]": {"test_system": "Long-Evans rats", "assay": "Rat incisional model, visual scar scoring (visible scar length)", "assay_type": "in vivo", "description": "Using sterile techniques, longitudinal wounds were incised on shaved dorsal skin of the rats. A 4 cm incision was cut through the panniculus down to the skeletal musculature, and a 250 μL single dose of either 10 mg/mL hyaluronic acid (HA) or HA+DS-SILY was applied to the open wound by a syringe. DS-SILY was tested at 0.5, 1, and 2.5 mg/mL mixed with HA. The incision was then sutured closed and animals were returned to individual cages and monitored for complications. Negative control rats received no treatment and were treated identically. A pilot study was performed (n=3) at time points 3, 7, 10, 14, and 21 days, followed by a higher powered study (n=9) for 21 and 28 day time points.\nPhotographs of scars were taken at the time of necropsy using a digital camera with predetermined manual settings mounted on a camera stand to standardize focal distance\n(FIG. 36). A scale bar was included in each image and was used to determine the visible scar length. At the 21 and 28-day times points, five blinded observers traced the visible scar length using ImageJ software (NIH) to give a quantitative measure of visual scar healing."}},
  "note": "Ends that are not written are not given here.",
  "data": [
    {"substance": "DS-SILY: collagen-binding peptidoglycan in which a single SILY peptide was conjugated to dermatan sulfate via PDPH (RRANAALKAGELYKSILYGC; also: single peptide conjugated to dermatan sulfate via PDPH, site not given here)", "values": [
      {"measurement": "TGF-β1 in cell medium", "setting": "Human dermal fibroblasts", "value": "significantly decreased TGF-β1"},
      {"measurement": "gel compaction at early time points", "setting": "[1]", "value": "significantly compacted more than gels made of collagen alone or collagen with dermatan sulfate"},
      {"measurement": "fibril density (ratio of fibril containing area to void space)", "setting": "collagen gels", "value": "significantly greater fibril density"},
      {"measurement": "histological score for collagen maturity and organization (scar tissue)", "setting": "Long-Evans rats [2]", "value": "significantly lower scores"},
      {"measurement": "visible scar length", "setting": "Long-Evans rats [3]; 21 days, both doses (0.125 mg, 0.25 mg)", "value": "decreased visible scar length measured by 5 blinded observers was significant"},
      {"measurement": "visible scar length", "setting": "Long-Evans rats [3]; 28 days, high dose (0.25 mg)", "value": "not significant at 28 days compared to HA control"}
    ]}
  ]
}
